Test results: US5445937A, “Detection of Alzheimer's disease and other diseases using an improved photoaffinity labeling method” (The University of Kentucky Research Foundation, priority 1993, dated 1995)
Read-outs that look alike come from different tables or passages of the source.

What was measured:
[1] = molecular target: T1, Purified GS (glutamine synthetase) (Homo sapiens, UniProt P15104); test: Photoaffinity labeling (photoinsertion) of purified glutamine synthetase; type: binding, sheep
T1 construct: purified from sheep brain; purchased Sigma; host or cells: sheep brain
T1 sequence (P15104 whole entry): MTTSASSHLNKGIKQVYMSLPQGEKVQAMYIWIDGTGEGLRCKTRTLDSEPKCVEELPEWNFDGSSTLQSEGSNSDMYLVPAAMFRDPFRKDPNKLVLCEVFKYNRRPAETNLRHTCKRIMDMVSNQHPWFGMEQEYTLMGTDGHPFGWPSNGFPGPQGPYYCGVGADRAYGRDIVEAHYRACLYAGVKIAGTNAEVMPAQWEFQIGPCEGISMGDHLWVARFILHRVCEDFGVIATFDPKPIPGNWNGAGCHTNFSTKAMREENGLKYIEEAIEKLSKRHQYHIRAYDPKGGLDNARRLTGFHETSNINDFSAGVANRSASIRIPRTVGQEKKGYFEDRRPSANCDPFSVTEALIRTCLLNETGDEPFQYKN
Protocol: (§1) In each experiment, photoprobe was added to the cerebral spinal fluid sample and vortexed for 6 seconds. Each treated sample was then allowed to mix for an additional 24 seconds at room temperature before exposure to ultraviolet (UV) light.
(§2) The treated samples were placed on ice and exposed to UV light for 45 seconds. The UV light source, a hand-held UV lamp with an intensity of 6200 μW/cm^2, was positioned 1 cm from the sample. The UV activation of the photoprobe labeled samples was always conducted at 0° C.
(§3) Each sample was fractionated by 10% SDS-PAGE, run over a period of 21/2 to 3 hours, with constant amperage of 35 mA and an initial voltage of 140 volts. Since all of the proteins were very well separated on a 10% gel, a gradient was not necessary.
(§4) The quantity of protein, as well as the amount of the radioactivity incorporated into each protein, was quantified by densitometric scans of the exposed X-ray film, or of the stained gel, or by liquid scintillation spectrometry of the protein band excised from the gel. Significance was determined by analysis of variance at a rho level below […].
(§5) 1. Purified GS (purchased from Sigma, purified from sheep brain) comigrated on SDS-PAGE identically with the 42,000 Mr protein in the cerebral spinal fluid from Alzheimer's disease patients.
(§6) 2. Purified GS and the 42 kD protein found in the cerebral spinal fluid from Alzheimer's disease patients had the same approximate saturation and Kd values for binding ATP, 8-azido-ATP and 2-azido-ATP. […] Therefore, both GS and the 42 kD protein in the cerebral spinal fluid from Alzheimer's disease patients had the same nucleotide binding properties.
(§7) Purified glutamine synthetase from sheep brain was photolabeled by the above-described method, but under various ionic conditions.

[2] = test system: T2, Purified GS (glutamine synthetase); test: as above; type: binding, sheep; conditions: purified GS
T2 construct: purified from sheep brain; purchased Sigma; host or cells: sheep brain
T2 sequence (P15104 whole entry): as above
Protocol: as §1, §2, §3, §4, §5, §6, §7

[3] = molecular target: T3, 42 kD protein found in the cerebral spinal fluid from Alzheimer's disease patients (Homo sapiens, UniProt P15104); test: Photoaffinity labeling (photoinsertion) of the 42 kD protein in cerebral spinal fluid from Alzheimer's disease patients; type: binding
T3 construct: 42 kD protein found in the cerebral spinal fluid from Alzheimer's disease patients; from tissue; host or cells: cerebral spinal fluid of Alzheimer's disease patients
T3 sequence (P15104 2-373 limits assumed): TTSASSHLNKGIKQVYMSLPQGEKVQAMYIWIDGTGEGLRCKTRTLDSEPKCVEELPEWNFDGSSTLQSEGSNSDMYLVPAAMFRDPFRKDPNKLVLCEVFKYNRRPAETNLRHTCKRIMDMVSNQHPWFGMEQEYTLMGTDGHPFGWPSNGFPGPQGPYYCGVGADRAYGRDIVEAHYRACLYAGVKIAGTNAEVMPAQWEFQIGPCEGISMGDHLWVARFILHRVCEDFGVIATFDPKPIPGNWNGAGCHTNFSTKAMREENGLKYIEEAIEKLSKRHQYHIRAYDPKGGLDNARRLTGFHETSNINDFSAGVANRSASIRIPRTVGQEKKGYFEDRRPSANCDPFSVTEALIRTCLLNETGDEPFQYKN
Protocol: Each assay was performed on 15 μl of cerebral spinal fluid. Although the amount of cerebral spinal fluid tested remained constant for each experiment, the protein concentration of each sample varied to some degree.
Each cerebral spinal fluid sample was photolabeled with [^32 P]8N3 ATP to identify the 42,000 Mr protein. The cerebral spinal fluid sample was comprised of cerebral spinal fluid, buffer, and water. The photoprobes used in each experiment were prepared by the inventor according to the procedures disclosed by Potter and Haley in Meth. in Enzymol., 91:613-633 (1983). Probes were also available commercially through ICN Radiochemicals 2727 Campus Drive, Irvine, Calif. 92715.
as §1, §2, §3, §4, §6

glutamine synthetase = test: Enzymatic activity of glutamine synthetase; type: biochemical, sheep; conditions: 10 μM

## [N-]=[N+]=Nc1nc(N)c2ncn([C@@H]3O[C@H](COP(=O)(O)OP(=O)(O)OP(=O)(O)O)[C@@H](O)[C@H]3O)c2n1 [2-azido-ATP, 2-azidoadenosine 5'-triphosphate]
[1]; purified GS
  saturation of photoinsertion: 40 to 50 µM
[2]
  amount of photo-incorporation on a mole to mole basis relative to [γ32P]8N3 ATP: greater
[3]; 42 kD protein in AD CSF
  amount of photo-incorporation on a mole to mole basis relative to [γ32P]8N3 ATP: greater
  saturation of photoinsertion: 40 to 50 µM
[3]; 42 kD protein in AD CSF, approximate Kd from photoinsertion, read-out: half maximal photoinsertion
  Kd: ~10 µM

## [N-]=[N+]=Nc1nc2c(N)ncnc2n1[C@@H]1O[C@H](COP(=O)(O)OP(=O)(O)OP(=O)(O)O)[C@@H](O)[C@H]1O [8-azido-ATP, 8-azidoadenosine 5'-triphosphate]
[1]; purified GS
  saturation of photoinsertion: 40 to 50 µM
[3]
  Kd: ~10 µM
[3]; 42 kD protein in AD CSF
  saturation of photoinsertion: 40 to 50 µM

## Nc1ncnc2c1ncn2[C@@H]1O[C@H](COP(=O)(O)OP(=O)(O)OP(=O)(O)O)[C@@H](O)[C@H]1O [ATP, adenosine triphosphate]
[1]; purified GS, competition by natural nucleotide
  effect on photolabeling with 8- or 2-azido-ATP: decreased the photolabeling
[3]; 42 kD protein in AD CSF, competition by natural nucleotide
  effect on photolabeling with 8- or 2-azido-ATP: decreased the photolabeling

## [Cl][Mn][Cl] [MnCl2]
[1]; purified sheep brain GS, 10 μM, FIG. 5
  effect on photolabeling of GS by 8N3 ATP photolabel: increases dramatically
Glutamine synthetase
  effect on enzymatic activity of glutamine synthetase: increases the enzymatic activity

## O=C(O)O [ammonium bicarbonate]
[1]; purified GS, ligand added at 100 mM
  enhancement of binding/photolabeling by [32P]2N3 ATP: about 5 fold
[3]; 42 kD CSF protein, ligand added at 100 mM
  enhancement of binding/photolabeling by [32P]2N3 ATP: about 5 fold
